The conditions of series [1]: pH 2.7.
Procedure: Measurement of log P values was performed according EEC directive 79/831 Annex V.A8 by HPLC (High Performance Liquid Chromatography) on reversed phase columns with the following methods:
^[a] measurement of LC-MS was done at pH 2.7 with 0.1% formic acid in water and with acetonitrile (contains 0.1% formic acid) as eluent with a linear gradient from 10% acetonitrile to 95% acetonitrile.
In series [2] the test system is Phytophthora infestans. It is filed as in vivo. Conditions: tomato plants, preventive spray, 500 ppm of active ingredient, evaluated 7 days after inoculation; 0% = untreated control, 100% = no disease.
In series [3] the test system is Plasmopara viticola. As to the kind of experiment: Plasmopara test (grapevines) / preventive. Conditions: grapevine plants, preventive spray, 100 ppm of active ingredient, evaluated 6 days after inoculation; 0% = untreated control, 100% = no disease. The class given is in vivo. The procedure:
Solvent: 24.5 parts by weight of acetone • 24.5 parts by weight of dimethylacetamide
Emulsifier: 1 part by weight of alkylaryl polyglycol ether
To produce a suitable preparation of active compound, 1 part by weight of active compound is mixed with the stated amounts of solvent and emulsifier, and the concentrate is diluted with water to the desired concentration. To test for preventive activity, young plants are sprayed with the preparation of active compound at the stated rate of application. After the spray coating has dried on, the plants are inoculated with an aqueous spore suspension of Plasmopara viticola and then remain for 1 day in an incubation cabinet at approximately 20° C. and a relative atmospheric humidity of 100%. The plant is subsequently placed for 4 days in a greenhouse at approximately 21° C. and a relative atmospheric humidity of approximately 90%. The plants are then misted and placed for 1 day in an incubation cabinet. The test is evaluated 6 days after the inoculation. 0% means an efficacy which corresponds to that of the untreated control, while an efficacy of 100% means that no disease is observed.

From patent publication US9474275B2, “Cyanoenamines and their use as fungicides” (priority 2010, dated 2016) come the findings set out here.

Marks after values point to notes of the source that are not given here.

For `CCCC(=O)C(C#N)=C(NC(C)COC)c1cn(C)nc1C(F)F` (stereo not drawn) [Compound 30], the LogP in series [1] was 2.54^[a]. Further, the efficacy is reported as 100% in series [2] and 94% in series [3].

On to `CCCC(=O)C(C#N)=C(NC(C)c1ccsn1)c1cn(C)nc1C(F)F` (stereo not drawn) [Compound 88], for which the LogP in series [1] was 2.73^[a]. Moreover, the efficacy in series [2] is listed as 97%; in series [3], 100%.

Regarding `CCCC(=O)C(C#N)=C(NC(C)c1nccs1)c1cn(C)nc1C(F)F` (stereo not drawn) [Compound 80], in series [1], the LogP was 2.59^[a]. Besides, the results for the efficacy in series [2] and in series [3] were 95% and 94%, respectively.

For the molecule `COCC(C)NC(=C(C#N)C(=O)CC1CC1)c1cn(C)nc1C(F)F` (stereo not drawn) [Compound 2], the LogP in series [1] was 2.54^[a]. Further, the results for the efficacy in series [2] and in series [3] were 100% and 94%, respectively.

Regarding `CCCC(=O)C(C#N)=C(NC(C)C(C)C)c1cn(C)nc1C(F)F` (stereo not drawn) [Compound 51], the LogP in series [1] was 3.29^[a]. Moreover, the efficacy in series [2] is on record as 95%; in series [3], 100%.

Turning to `CCCC(=O)C(C#N)=C(NC(C)C(C)(C)C)c1cn(C)nc1C(F)F` (stereo not drawn) [Compound 84], in series [1], the LogP is 3.55^[a]. Moreover, the efficacy in series [2] amounted to 100%; in series [3] it was 89%.

In the case of `CC(C)C(C)NC(=C(C#N)C(=O)CC1CC1)c1cn(C)nc1C(F)F` (stereo not drawn) [Compound 4], the LogP in series [1] was 3.27^[a]. Further, the efficacy came out at 95% in series [2] and 94% in series [3].
